In patent publication US20240301090A1, “COMPOSITIONS AND METHODS FOR TREATING A MEDICAL CONDITION” (priority 2021, published 2024):

Experiments:
LβT2 cells = test: DNA delivery into LβT2 cells (qPCR of GFP transcript); type: cell-based; details: CPP packaged with DNA construct
Experimental: FIG. 8A is a schematic representation of a MDP containing protamine as a cell penetrating peptide (CPP), a NLS sequence and C-terminal cysteine cross-linked to GnRHLys6. […] Results are shown as mean±SEM, n=3. […] In FIG. 8E, LβT2 cells were treated with the MDP at two concentrations (200 ng DNA+300 ng MDP or 1 μg DNA+1.5 μg MDP), or 200 ng DNA was transfected using Polyjet reagent (positive control). Following 72 hours, RNA was extracted, purified and treated with DNAse, and qPCR performed using primers targeting the adaptor and GFP, and then by nested PCR targeting just the GFP. Results are shown as mean±SEM, n=3.
(§1) FIG. 9A is a schematic representation of the CPP (NF51) cross-linked to GnRH using this approach and then packaged with the DNA. In FIG. 9B, LβT2 or MEF cells were treated with the NF51-DNA alone, or after its crosslinking to GnRH Lys6. PCR was carried out as in FIG. 8E. Also shown are mRNA levels in samples that lacked the reverse transcriptase (RT).
The delivery delivery proteins—the minimal delivery protein (MDP) chimeric protein (protamine and NLS, SEQ ID NO: 89) was synthesized by GL Biochem. It was crosslinked to GnRH Lys6 analog (SEQ ID NO: 9, Sigma), via the Lys^6 of the GnRH and the C-terminal Cys of the above protein using sulfo-GMBS. The crosslinked protein was dialyzed against PBS. […]

MEF cells = test: DNA delivery into MEF cells (qPCR of GFP transcript); type: cell-based; details: CPP packaged with DNA construct
Experimental: as §1
The delivery delivery proteins—the minimal delivery protein (MDP) chimeric protein (protamine and NLS, SEQ ID NO: 89) was synthesized by GL Biochem. It was crosslinked to GnRH Lys6 analog (SEQ ID NO: 9, Sigma), via the Lys^6 of the GnRH and the C-terminal Cys of the above protein using sulfo-GMBS. The crosslinked protein was dialyzed against PBS. NF51 ([stearyl-AGYLLG]-delta-[…], SEQ ID NO: 103 conjugated through Gly6 to the δ-NH2 group of ornithine 1 of SEQ ID NO: 100) was purchased commercially (Icosagen) and cross-linked to GnRH Lys6 using Traut reagent (Pierce) followed by sulfo-GMBS (Thermo Fisher). Peptide 1 comprises the same CPP sequence as NF51 with a terminal cysteine (stearyl-AGYLLG)-delta-[…]-NH2, SEQ ID NO: 103 conjugated through Gly6 to the δ-NH2 group of ornithine 1 of SEQ ID NO: 101) for direct cross-linking, and Peptide 2 contains also the PACE cleavage (stearyl-AGYLLG)-delta-[…]-NH2, SQ ID NO: 103 conjugated through Gly6 to the δ-NH2 group of ornithine 1 of SEQ ID NO: 102). […]

αT3-1 gonadotrope cells = test: mCherry DNA delivery in mixed culture, FACS: αT3-1 gonadotrope cells; type: cell-based, murine; details: for delivery of DNA into the cells: GnRH-crosslinked peptides; for αT3-1 gonadotrope cells expressing mCherry: mixed 1:10 with MEFs, 1.5 hours incubation, FACS after 48 hours
Experimental: (§2) Following 48 hours, cell were sorted by FACS to determine the numbers of cells expressing each fluorescent protein in a quantitative manner. The mCherry expression was detected in 58% of the αT3-1 gonadotrope cells, and in 3% of the MEFs.
(§3) Transfection with delivery peptides—Mixed cell cultures, in which the gonadotropes comprise ˜10% of the cells, as in the pituitary gland, were transferred to media without FCS or antibiotics and pre-incubated for 1.5 hours prior to transfection. The DNA: peptide mix (ratio 1:5; for every 1 μg DNA [mCherry or KRAB-Sf1], 5 μg peptide was used) was incubated for 5 minutes and then added to the cells. Following 1.5 hours the media was removed and replaced with fresh complete media. Cells were collected 24-48 hours later for counting by FACS to determine specificity and efficacy of the delivery, or after 2 weeks for gene expression analysis by qPCR. Further optimization in the mixed cell cultures utilized GnRH-crosslinked Peptide2 mixed 1:10 with non-crosslinked Peptide 2 to attain maximal efficiency and targeting specificity.
(§4) To test whether the newly designed GnRH-carrier might deliver DNA specifically to GnRH receptor-expressing cells, it was first applied to αT3-1 gonadotrope cells and Egr1 mRNA levels measured as a readout for GnRHR binding. […] Following, cells were sorted and counted by FACS to determine the number of cells expressing the delivered DNA in an unbiased manner. After optimization, the number of gonadotrope cells that were transfected reached around 58%, while only 3% of MEF cells expressed the mCherry (FIG. 12B). Assuming 80% of the αT3-1 indeed express the GnRH receptor, the targeting was successful in 72.5% of the GnRH receptor-expressing cells.

GnRH receptor (GnRHR) = target: T1, GnRH receptor (GnRHR) (Mus musculus, UniProt Q01776); test: Egr1 mRNA induction as readout of GnRHR binding in αT3-1 cells; type: cell-based, murine; design: endogenous in cells; host or cells: αT3-1 gonadotrope cell line; details: αT3-1 gonadotrope cells
T1 sequence (Q01776 1-327): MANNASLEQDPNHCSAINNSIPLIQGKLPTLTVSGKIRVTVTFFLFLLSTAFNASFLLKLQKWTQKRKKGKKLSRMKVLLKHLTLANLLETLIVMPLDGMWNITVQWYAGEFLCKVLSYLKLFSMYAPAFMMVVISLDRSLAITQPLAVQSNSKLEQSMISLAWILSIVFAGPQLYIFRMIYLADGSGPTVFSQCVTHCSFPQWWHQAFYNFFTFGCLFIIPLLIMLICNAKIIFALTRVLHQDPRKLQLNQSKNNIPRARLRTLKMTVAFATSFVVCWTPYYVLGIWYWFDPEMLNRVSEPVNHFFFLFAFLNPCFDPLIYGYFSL
Experimental: as §2
RT-PCR—Real-time quantitative PCR was performed following RNA extraction (Trizol, Invitrogen followed by Zymo RNA purification kit+DNase) and reverse transcriptase (qScript cDNA synthesis kit, Quanta) using polymerase (2×qPCRBIO Fast qPCR SyGreen Blue Mix, Hi-ROX, PCR Biosystems) and the primers shown in Table 2 hereinbelow. Values were calculated using DNA standard curves and normalized to levels of Rplp0.
as §4

MEFs = test: mCherry DNA delivery in mixed culture, FACS: MEFs; type: cell-based; details: mixed culture with αT3-1, 1.5 hours incubation, FACS after 48 hours
Experimental: as §2
as §3, with “Further optimization in the mixed cell cultures utilized GnRH-crosslinked Peptide2 mixed 1:10 with non-crosslinked Peptide 2 to attain maximal efficiency and targeting specificity.” left out
To test whether the newly designed GnRH-carrier might deliver DNA specifically to GnRH receptor-expressing cells, it was first applied to αT3-1 gonadotrope cells and Egr1 mRNA levels measured as a readout for GnRHR binding. […] Following, cells were sorted and counted by FACS to determine the number of cells expressing the delivered DNA in an unbiased manner. […]

[1] = test system: T2, Boc-Arg-Val-Arg-Arg-MCA reporter peptide substrate
T2 sequence: RVRR

[2] = target: T3, Boc-Arg-Val-Arg-Arg-MCA reporter peptide substrate
T3 chain: RVRR

Molecule: [stearyl-AGYLLG]-delta-OINLKALAALAKKIL [NF51, reference compound]
- transfection of LβT2 gonadotrope cells (LβT2 cells): highly efficient
- transfection of MEF cells (MEF cells): highly efficient

Molecule: (stearyl-AGYLLG)-delta-OINLKALAALAKKILC-NH2 [Peptide 1]
- delivery of DNA into the cells (αT3-1 gonadotrope cells): could deliver some DNA into the cells
- Egr1 mRNA activation (GnRHR binding) (GnRH receptor (GnRHR)): also activated the receptor

Molecule: (stearyl-AGYLLG)-delta-OINLKALAALAKKILRVRRC-NH2 [GnRH Lys6-Peptide 2]
- delivery of DNA into the cells (αT3-1 gonadotrope cells): could deliver some DNA into the cells
- successful targeting of GnRH receptor-expressing cells (αT3-1 gonadotrope cells; assuming 80% of the αT3-1 express the GnRH receptor): 72.5%
- specificity of DNA delivery to gonadotropes (αT3-1 gonadotrope cells; compared with peptide without PACE4 cleavage site): much more specific to gonadotropes
- αT3-1 gonadotrope cells expressing mCherry (αT3-1 gonadotrope cells): 58%
- αT3-1 gonadotrope cells expressing mCherry (αT3-1 gonadotrope cells; listed as Peptide 2): around 58%
- MEFs expressing mCherry (MEFs): 3%
- Egr1 mRNA activation (GnRHR binding) (GnRH receptor (GnRHR)): activated Egr1 mRNA

Molecule: PACE4 secreted by LβT2 gonadotrope cells (in conditioned medium)
- fluorescence on cleavage of the substrate (380 nm ex/460 nm em) [1]: cutting the reporter and emitting fluorescence at a much higher level than seen in the incubation media of MEF cells

B1: PACE4 secreted by PANC-1 pancreatic cells (in conditioned medium) (protein)
chain: QVRSDPQALYFNDPIWSNMWYLHCGDKNSRCRSEMNVQAAWKRGYTGKNVVVTILDDGIERNHPDLAPNYDSYASYDVNGNDYDPSPRYDASNENKHGTRCAGEVAASANNSYCIVGIAYNAKIGGIRMLDGDVTDVVEAKSLGIRPNYIDIYSASWGPDDDGKTVDGPGRLAKQAFEYGIKKGRQGLGSIFVWASGNGGREGDYCSCDGYTNSIYTISVSSATENGYKPWYLEECASTLATTYSSGAFYERKIVTTDLRQRCTDGHTGTSVSAPMVAGIIALALEANSQLTWRDVQHLLVKTSRPAHLKASDWKVNGAGHKVSHFYGFGLVDAEALVVEAKKWTAVPSQHMCVAASDKRPRSIPLVQVLRTTALTSACAEHSDQRVVYLEHVVVRTSISHPRRGDLQIYLVSPSGTKSQLLAKRLLDLSNEGFTNWEFMTVHCWGEKAEGQWTLEIQDLPSQVRNPEKQGKLKEWSLILYGTAEHPYHTFSAHQSRSRMLELSAPELEPPKAALSPSQVEVPEDEEDYTAQSTPGSANILQTSVCHPECGDKGCDGPNADQCLNCVHFSLGSVKTSRKCVSVCPLGYFGDTAARRCRRCHKGCETCSSRAATQCLSCRRGFYHHQEMNTCVTLCPAGFYADESQKNCLKCHPSCKKCVDEPEKCTVCKEGFSLARGSCIPDCEPGTYFDSELIRCGECHHTCGTCVGPGREECIHCAKNFHFHDWKCVPACGEGFYPEEMPGLPHKVCRRCDENCLSCAGSSRNCSRCKTGFTQLGTSCITNHTCSNADETFCEMVKSNRLCERKLFIQFCCRTCLLAG
- fluorescence on cleavage of the substrate [2]: cutting the reporter and emitting fluorescence at a much higher levels than the HEK cells
